Patent publication US6831190B1, “Guanidinomethyl cyclohexane carboxylic acid ester derivatives” (Teikoku Chemical Industries Co., Ltd., priority 1994, dated 2004)

Columns and labels:
Type in all cases: cell-based
[1] = tested on: Escherichia coli NIH JC-2; test: MIC, standard method of Japanese Chemotherapy Academy; details: for MIC: Objected Strain 3: Escherichia coli NIH JC-2
Protocol: (§1) 1. Minimum Inhibitory Concentration (MIC) was measured in accordance with the standard method of Japanese Chemotherapy Academy (Chemotherapy, 29: 76-79, 1981).

[2] = tested on: Bacillus subtilis ATCC 6633; test: as above; details: for MIC against bacillus subcillus ATCC 6633: standard method of Japanese Chemotherapy Academy
Protocol: as §1
(§2) And MIC of the compounds of Example 3, 36, 8, 14, 17, 21, 41 and 45 were measured.

[3] = tested on: Helicobacter pylori ATCC 43504; test: MIC, agar plating dilution (standard method of Japanese Chemotherapy Academy); details: Objected Strain 1: Helicobacter pylori ATCC 43504
Protocol: (§3) 1. Minimum Inhibitory Concentration (MIC) was measured in accordance with the standard method of Japanese Chemotherapy Academy (Chemotherapy, 29: 76-79, 1981). Sensitivity was measured with an agar plating dilution using Brain-Heart Infusion agar (Difco Co.) which was added 0.1% of cyclodextrin. […] of the solutions of the compounds which were obtained in examples of the present invention was prepared by dissolving in dimethylsulfoxide. […] Each of 1 ml of those prepared solutions was dispensed in share, after sterilization, 9 ml of sensitivity measuring medium which is kept at 50° C. was added to each, and they were sufficiently mixed. The mixture was used as a plate for measuring sensitivity. Brain Heart Infusion agar medium (Difco Co.), which was added 0.1% of cyclodextrin, was used as bacteria growing medium, and was cultured under microair at 37° C. for three days, and the number of bacteria thereof was adjusted to about 106/ml. This was used as a bacterial solution for inoculation. The medium was painted in each square about 2 cm with nichromic line loop. The medium was cultured under microair for three days at 37° C.

[4] = tested on: Helicobacter pylori ATCC 43629; test: as above; details: Objected Strain 2: Helicobacter pylori ATCC 43629
Protocol: as §3

[5] = tested on: Helicobacter pylori No. 1; test: MIC, agar plating dilution, clinical segregation strain; details: Strain 4: Helicobacter pylori No. 1
Protocol: (§4) Minimum Inhibitory Concentration (MIC) was measured in accordance with the standard method of Japanese Chemotherapy Academy (Chemotherapy, 29: 76-79, 1981). Sensitivity was measured with an agar plating dilution using Brain-Heart Infusion agar (Difco Co.) which was added 0.1% of cyclodextrin. […] of the solutions of the compounds which were obtained in examples of the present invention was prepared by dissolving in dimethylsulfoxide. […] Each of 1 ml of those prepared solutions was dispensed in share, after sterilization, 9 ml of sensitivity measuring medium which is kept at 50° C. was added to each, and they were sufficiently mixed. The mixture was used as a plate for measuring sensitivity. Brain Heart Infusion agar medium (Difco Co.), which was added 0.1% of cyclodextrin, was used as bacteria growing medium, and was cultured under microair at 37° C. for three days, and the number of bacteria thereof was adjusted to about 106/ml. This was used as a bacterial solution for inoculation. The medium was painted in each square about 2 cm with nichromic line loop. The medium was cultured under microair for three days at 37° C. […] The each result is shown at Table 4.

[6] = tested on: Helicobacter pylori No. 2; test: as above; details: Strain 5: Helicobacter pylori No. 2
Protocol: as §4

[7] = tested on: Helicobacter pylori No. 3; test: as above; details: Strain 6: Helicobacter pylori No. 3
Protocol: as §4

[8] = tested on: Helicobacter pylori No. 4; test: as above; details: Strain 7: Helicobacter pylori No. 4
Protocol: as §4

[9] = tested on: Staphylococcus aureus 209PJC; test: MIC, standard method of Japanese Chemotherapy Academy; details: Strain 11: Staphylococcus aureus 209PJC
Protocol: as §1, §2

[10] = tested on: Staphylococcus aureus No. 2 (MRSA); test: as above; details: Strain 14: Staphylococcus aureus No. 2 (MRSA)
Protocol: as §1, §2

Compound | MIC against Escherichia coli. NHJC-2 ([1]; standard method of Japanese Chemotherapy Academy) [µg/mL] | MIC against bacillus subcillus ATCC 6633 [2] [µg/mL] | MIC [3] [µg/mL] | MIC [4] [µg/mL] | MIC [1] [µg/mL] | MIC [5] [µg/mL] | MIC [6] [µg/mL] | MIC [7] [µg/mL] | MIC [8] [µg/mL] | MIC ([2]; Strain 13: Bacillus subtilis ATCC 6633) [µg/mL] | MIC [9] [µg/mL] | MIC [10] [µg/mL]
4-[4-(trans-4-guanidinomethyl cyclohexylcarbonyloxy)phenyl]benzoate.methansulfonate [Example 28] | > 25 | > 25 |  |  |  |  |  |  |  |  |  | 
Cl.N=C(N)NC[C@H]1CC[C@H](C(=O)Oc2ccc(-c3ccccc3)cc2)CC1 [Compound 1, trans-4-guanidinomethyl cyclohexane carboxylic acid (4-phenylphenylester)hydrochloride, reference compound] |  |  | 3.13 | 0.78 | >25 | 0.39 | 1.56 | 0.39 | 0.78 |  |  | 
CCOC(=O)c1ccc(-c2ccc(OC(=O)[C@H]3CC[C@H](CNC(=N)N)CC3)cc2)cc1.Cl [Example 2, trans-4-guanidinomethyl cyclohexane carboxylic acid [4-(4-ethoxycarbonylphenyl)phenylester].hydrochloride] |  |  | 1.56 | 0.78 | >25 | 0.39 | 1.56 | 0.39 | 0.78 |  |  | 
COc1ccc(COC(=O)c2ccc(-c3ccc(OC(=O)[C@H]4CC[C@H](CNC(=N)N)CC4)cc3)cc2)cc1.Cl [Example 18, trans-4-guanidinomethyl cyclohexane carboxylic acid [4-[4-(4-methoxybenzyloxy carbonyl)phenyl]phenylester].hydrochloride] |  | 25 | 0.78 | 0.78 | >25 | 0.20 | 0.78 | 0.20 | 0.39 |  |  | 
Cl.N=C(N)NC[C@H]1CC[C@H](C(=O)Oc2ccc(-c3ccc(C(=O)OCc4ccccc4F)cc3)cc2)CC1 [Example 19, trans-4-guanidinomethyl cyclohexane carboxylic acid [4-[4-(2-fluorobenzyloxycarbonyl)phenyl]phenylester].hydrochloride] |  | > 25 | 0.39 | 0.39 | >25 | 0.20 | 0.78 | 0.20 | 0.39 |  |  | 
CC(C)OC(=O)c1ccc(-c2ccc(OC(=O)[C@H]3CC[C@H](CNC(=N)N)CC3)cc2)cc1.Cl [Example 20, trans-4-guanidinomethyl cyclohexane carboxylic acid [4-(4-isopropyloxycarbonyl)phenylphenylester].hydrochloride] |  |  | 0.78 | 0.78 | >25 | 0.39 | 1.56 | 0.39 | 0.78 |  |  | 
Cl.N=C(N)NC[C@H]1CC[C@H](C(=O)Oc2ccc(-c3ccc(C(=O)OCC4CCCCC4)cc3)cc2)CC1 [Example 23, trans-4-guanidinomethyl cyclohexane carboxylic acid [4-(4-cyclohexylmethyloxy carbonylphenyl)phenylester].hydrochloride] |  | 25 | 0.20 | 0.39 | >25 | 0.20 | 0.39 | 0.20 | 0.39 |  |  | 
Cc1ccc(COC(=O)c2ccc(-c3ccc(OC(=O)[C@H]4CC[C@H](CNC(=N)N)CC4)c(Br)c3)cc2)cc1.Cl [Example 24, trans-4-guanidinomethyl cyclohexane carboxylic acid[2-bromo-4-[4-(4-methylbenzyloxycarbonyl)phenyl]phenylester].hydrochloride] |  | > 25 | 0.39 | 0.78 | >25 |  | 0.39 | 0.20 | 0.39 |  |  | 
Cc1ccc(COC(=O)c2ccc(-c3ccc(OC(=O)[C@H]4CC[C@H](CNC(=N)N)CC4)cc3)cc2)c(C)c1.Cl [Example 25, trans-4-guanidinomethyl cyclohexane carboxylic acid[4-[4-(2,4-dimethylbenzyloxycarbonyl)phenyl]phenylester].hydrochloride] |  | > 25 | 0.39 | 0.78 | >25 | 0.39 | 0.39 | 0.20 | 0.39 |  |  | 
Cl.N=C(N)NC[C@H]1CC[C@H](C(=O)Oc2ccc(-c3ccc(C(=O)OCCc4ccccc4)cc3)cc2)CC1 [Example 26, trans-4-guanidinomethyl cyclohexane carboxylic acid[4-[4-(2-phenylethyloxycarbonyl)phenyl]phenylester].hydrochloride] |  | > 25 | 0.39 | 0.78 | >25 | 0.20 | 0.39 | 0.10 | 0.20 |  |  | 
CCOC(=O)c1ccc(Oc2ccc(OC(=O)[C@H]3CC[C@H](CNC(=N)N)CC3)cc2)cc1.Cl [Example 36, trans-4-guanidinomethyl cyclohexane carboxylic acid[4(4-ethoxycarbonylphenyloxy)phenylester].hydrochloride] |  |  | 6.25 | 6.25 | >25 |  |  |  |  | 25 | 6.25 | 6.25
Cl.N=C(N)NC[C@H]1CC[C@H](C(=O)Oc2ccc(-c3ccc(C(=O)OCCCc4ccccc4)cc3)cc2)CC1 [Example 39, trans-4-guanidinomethyl cyclohexane carboxylic acid[4-[4-(3-phenylpropyloxycarbonyl)phenyl]phenylester].hydrochloride] |  |  | 0.39 | 0.78 | >25 | 0.39 | 0.78 | 0.20 | 0.39 |  |  | 
Cl.N=C(N)NC[C@H]1CC[C@H](C(=O)Oc2ccc(-c3ccc(C(=O)OCCCOc4ccc(F)cc4)cc3)cc2)CC1 [Example 40, trans-4-guanidinomethyl cyclohexane carboxylic acid[4-[4-[3-(4-fluorophenyloxy)propyloxycarbonyl]phenyl]phenylester].hydrochloride] |  |  | 0.20 | 0.39 | >25 | 0.20 | 0.78 | 0.10 | 0.39 |  |  | 
CCCC[C@H]1CC[C@H](COC(=O)c2ccc(-c3ccc(OC(=O)[C@H]4CC[C@H](CNC(=N)N)CC4)cc3)cc2)CC1.Cl [Example 42, trans-4-guanidinomethyl cyclohexane carboxylic acid[4-[4-(trans-4-n-butylcyclohexylmethloxycarbonyl)phenyl]phenylester].hydrochloride] |  |  | 0.39 | 1.56 | >25 | 0.39 | 1.56 | 0.20 | 0.39 |  |  | 
